Columns and labels:
[1] = test system: Pseudomonas aeruginosa PAO1; test: Effects of citronellol on the growth of Pseudomonas aeruginosa PAO1 (growth curve, OD600, Bioscreen C); assay type: cell-based
Method: (§1) Preparation of PAO1[(Pseudomonas aeruginosa) PAO1] bacterial suspension: a culture solution of Pseudomonas aeruginosa PAO1 in an exponential growth phase was sampled, centrifuged, washed once with a PBS buffer, resuspended in PBS, and diluted to 10^8 CFU/mL to obtain the PAO1 bacterial suspension.
An LB culture medium and citronellol […] were added to test tubes respectively, and the PAO1 bacterial suspension in the exponential growth phase was inoculated to reach a total volume of 10 mL respectively. The bacterial concentration of PAO1 was each 10^6′ CFU/mL, and the concentration of citronellol was 0 (control), 0.313 μL/mL, 0.625 μL/mL, 1.25 μL/mL, and 2.5 μL/mL, respectively. Samples from several test groups were added to a honeycomb culture plate dedicated to an automatic growth curve analyzer (Bioscreen C), and 350 μL of culture solution was added to each well, with three parallel for each test group. The honeycomb culture plate was placed in the automatic growth curve analyzer, and cultured over shaking at 37° C. for 3 days, and OD600 was measured every hour. Taking OD600 as the ordinate and a culture time as the abscissa, the growth curve of PAO1 under the action of citronellol was drawn to study the effect of the citronellol on the growth of PAO1. The results were shown as in FIG. 1.

[2] = test system: key genes of a quorum-sensing system of Pseudomonas aeruginosa and virulence genes regulated thereby (PAO1 cells); test: Effects of citronellol on the expression of key quorum-sensing genes and virulence genes regulated thereby (real-time fluorescent quantitative PCR); assay type: cell-based; details: 1.25 μL/mL citronellol for 5 h
Method: as §1
The PAO1 bacterial suspension in a logarithmic growth phase was added to 50 mL of sterile LB liquid culture medium to reach a final concentration of 10^6 CFU/mL for the bacterial solution. Citronellol (β-citronellol) was added to reach the final concentrations of 0 (three biological replicates in the control group were named A1, A2, and A3, respectively) and 1.25 μL/mL (three biological replicates in the test groups were named B1, B2, B3). Each group was cultured at 37° C. and 180 rpm for 5 h, and centrifuged to collect bacteria, which were then quick-frozen at −80° C. for later use.
Total RNAs were extracted from the bacteria by a Trizol (Thermo Fisher Scientific) kit.
After extraction, the purity of the RNAs were detected with an ultra-micro spectrophotometer (Implen, Munich, Germany). An A260/A280 value of each RNA sample should be between 1.8 and 2.0. Reverse transcription and real-time fluorescent quantitative PCR amplification were carried out by using a PrimeScript RT Master Mix kit (Takara, Dalian, China) and an ETC 811 PCR instrument (Eastwin Life Sciences, Inc.). A q-PCR reaction system included Takara SYBR Premix Ex TaqII (Tli RNaseH Plus) (Code No. RR820A), and PCR procedures included: pre-denaturation at 95° C. for 30 s; and denaturation at 95° C. for 5 s and annealing at 60° C. for 34 s, 40 cycles. Based on 10 gene sequences published on the website of GenBank, primers for q-PCR were designed by using software Primer Premier 5.0, and at the same time, a 16S rRNA gene was used as an internal reference gene.

CC(C)=CCCC(C)CCO (stereo not drawn) [citronellol, β-citronellol]
time point when the absorbance value of the culture solution differs greatly (time to maximum absorbance) ([1]; 0.313 μL/mL): 26 h | time point when the absorbance value of the culture solution differs greatly (time to maximum absorbance) ([1]; 0.625 μL/mL): 37 h | time point when the absorbance value of the culture solution differs greatly (time to maximum absorbance) ([1]; 1.25 μL/mL): 39 h | time point when the absorbance value of the culture solution differs greatly (time to maximum absorbance) ([1]; 2.5 μL/mL): 48 h | inhibitory effect on the growth of PAO1 ([1]; citronellol at 0.313, 0.625, 1.25 and 2.5 μL/mL, LB, 37° C., 3 days, OD600): a certain yet weak inhibitory effect | difference in lag phase and logarithmic growth phase on the PAO1 growth curves ([1]; citronellol treatment groups at different concentrations (0.313-2.5 μL/mL)): no significant difference | expression of signaling molecule receptor protein gene lasR [2]: significantly up-regulated | expression of signaling molecule receptor protein gene pqsR [2]: significantly down-regulated | expression of signaling molecule synthase gene lasI [2]: significantly up-regulated | expression of signaling molecule synthase gene pgsA [2]: significantly down-regulated | transcription level of lasA [2]: up-regulated, but with a less significant change | transcription level of signaling molecule receptor protein gene rhIR [2]: significantly up-regulated | transcription level of signaling molecule synthase gene rhII [2]: changes a little | transcription level of toxA [2]: significantly up-regulated | transcription of virulence gene chiC [2]: inhibited | transcription of virulence gene lasB [2]: inhibited | transcription of virulence gene phzM [2]: inhibited | transcription of virulence gene psIB [2]: inhibited
